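Cultured in 96-well plates, cells were exposed to test compound for 48 hours across five concentrations. GI50 = concentration required for 50% inhibition of growth.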 Calls of active or inactive are those of the source. Rule as the data show it: active = GI50 up to about 1.1 µM and inactive = higher.

Some test systems named below: HOP-62; 786-0; EKVX; SF-268; SNB-75; SF-295; HCT-15; HL-60; T47D; LOX IMVI; OVCAR-5; SR; SK-OV-3; SK-MEL-5; U-251; UACC-62; OVCAR-4; PC-3; RXF 393; HCC 2998.
Common to all, as to assay: NCI tumour cell line growth inhibition, 48 h

In the case of `Cc1c(O)nc(/C=C/C(=O)O)nc1C(=O)O`, the GI50 in the test with HOP-62, in the test with 786-0, in the test with EKVX, with SF-268, in the test with SNB-75 and with SF-295 was > 100 µM (inactive) each time. Besides, the GI50 is more than 100 µM with HCT-15; > 100 µM (inactive) with HL-60; > 100 µM (inactive) with T47D; > 100 µM (inactive) in the test on LOX IMVI; > 100 µM (inactive) in the test on OVCAR-5; > 100 µM (inactive) with SR. For the same compound, the GI50 in the test on SK-OV-3, with SK-MEL-5, with U-251, with UACC-62, in the test with OVCAR-4 and in the test on PC-3 was > 100 µM (inactive) throughout. In the test on RXF 393, the GI50 is > 100 µM (inactive).
For the compound `O=C(CCc1ccc(O)cc1)NCCc1ccc(O)cc1`, the GI50 in the test with HOP-62 was > 100 µM (inactive); in the test on 786-0 it was > 100 µM (inactive); with EKVX it was > 100 µM (inactive); in the test with SF-268 it was > 100 µM (inactive); in the test with SF-295 it was > 100 µM (inactive); in the test with HCT-15 it was more than 100 µM. Moreover, the GI50 in the test with HL-60, in the test with HCC 2998, in the test on T47D, in the test with LOX IMVI, in the test with OVCAR-5 and in the test on SR was > 100 µM (inactive) throughout. For the same compound, the GI50 in the test with SK-OV-3, in the test on SK-MEL-5, in the test on U-251, in the test on UACC-62, in the test with OVCAR-4 and with PC-3 was > 100 µM (inactive) each time. Moreover, the GI50 with RXF 393 was > 100 µM (inactive).
As for `Cc1cc(N=C2C=C(Br)C(=O)C(Br)=C2)cc(CN(CC(=O)O)CC(=O)O)c1O`, the GI50 in the test on HOP-62, in the test with 786-0, with EKVX, with SF-268, in the test on SNB-75 and in the test on SF-295 was > 100 µM (inactive) each time. Further, the GI50 with HCT-15 is more than 100 µM; with HL-60, > 100 µM (inactive); with HCC 2998 it was > 100 µM (inactive); in the test with T47D, > 100 µM (inactive); in the test on OVCAR-5, > 100 µM (inactive); with SR, > 100 µM (inactive). In addition, the GI50 in the test on SK-OV-3, in the test on SK-MEL-5, in the test on U-251, with UACC-62, with OVCAR-4 and in the test with PC-3 was > 100 µM (inactive) throughout. For the same compound, the GI50 in the test with RXF 393 is > 100 µM (inactive).
In the case of `Cc1cc(C)c2c(c1)C(=O)/C(=C/c1ccccc1C(=O)O)C2`, the GI50 with HOP-62 is 67.5 µM (inactive); with 786-0, > 100 µM (inactive); in the test with EKVX, 29.1 µM (inactive); in the test with SF-268, 61.7 µM (inactive); in the test on SNB-75 it was 40 µM (inactive); with SF-295, 52.2 µM (inactive). The GI50 is 54.3 µM in the test with HCT-15; 57.7 µM (inactive) with HL-60; 51.3 µM (inactive) with HCC 2998; 39 µM (inactive) with T47D; 71.9 µM (inactive) with LOX IMVI; 62.4 µM (inactive) with SR. Further, the GI50 was 59.8 µM (inactive) in the test with SK-MEL-5; 35.7 µM (inactive) with U-251; 89.5 µM (inactive) in the test on UACC-62; 45.1 µM (inactive) with OVCAR-4; 43.2 µM (inactive) in the test with PC-3; 38.7 µM (inactive) in the test with RXF 393.
`C=C1C[C@@H]2O[C@H]3[C@H]4[C@@H](C[C@@H](C)[C@@H](OC(C)=O)[C@H]42)[C@@H](C)CO[C@@]3(C)[C@H](OC(=O)CCCCCCC)C[C@H]1O`: the GI50 with HOP-62 is 17.4 µM (inactive); in the test on 786-0 it was 15.5 µM (inactive); in the test on EKVX it was 13.9 µM (inactive); with SF-268, 16.1 µM (inactive); with SNB-75, 16.7 µM (inactive); with SF-295, 21.7 µM (inactive). The GI50 in the test with HCT-15 was 15.8 µM; with HL-60, 12.4 µM (inactive); in the test on HCC 2998 it was 16.9 µM (inactive); in the test on T47D it was 11.1 µM (inactive); in the test with LOX IMVI it was 13.2 µM (inactive); in the test with OVCAR-5, 17.5 µM (inactive). In addition, the GI50 with SR was 15.8 µM (inactive); with SK-MEL-5, 15.5 µM (inactive); in the test with U-251, 16.9 µM (inactive); in the test with UACC-62 it was 16.3 µM (inactive); in the test on OVCAR-4 it was 12.8 µM (inactive); in the test on PC-3, 15.3 µM (inactive). The GI50 in the test with RXF 393 was 18.9 µM (inactive).
Take `Oc1ccc(C(c2ccc(O)cc2)c2ccc(O)cc2)cc1`: the GI50 with 786-0 was 17.6 µM (inactive); in the test on EKVX it was 15.3 µM (inactive); in the test with SF-268 it was 32.1 µM (inactive); in the test on SF-295, 41.4 µM (inactive); with HCT-15, 23.9 µM; with HL-60, 18.9 µM (inactive). For the same compound, the GI50 in the test with HCC 2998 was 18 µM (inactive); in the test with T47D it was 9.27 µM (inactive); in the test with LOX IMVI, 19.3 µM (inactive); in the test with SR it was 37.1 µM (inactive); with SK-OV-3, 14 µM (inactive); with SK-MEL-5, 13.8 µM (inactive). Moreover, the GI50 in the test on U-251 is 23.2 µM (inactive); in the test on UACC-62, 14.5 µM (inactive); in the test with OVCAR-4, 9.71 µM (inactive); in the test with PC-3 it was 24 µM (inactive); in the test with RXF 393, 17.2 µM (inactive).
As to `N#Cc1c(N)c2c(c(-c3ccccc3)c1-c1ccccc1)C(=O)N(N)C2=O`, the GI50 with 786-0 was 98.2 µM (inactive); with EKVX it was > 100 µM (inactive); in the test on SF-268 it was > 100 µM (inactive); with SNB-75, > 100 µM (inactive); in the test on SF-295 it was 89.3 µM (inactive); in the test with HCT-15 it was more than 100 µM. The GI50 in the test on HL-60 was 44 µM (inactive); in the test with HCC 2998 it was > 100 µM (inactive); with T47D, 49.4 µM (inactive); with OVCAR-5 it was > 100 µM (inactive); in the test with SR it was > 100 µM (inactive); in the test on SK-OV-3, > 100 µM (inactive). Also, the GI50 with SK-MEL-5 was 87.9 µM (inactive); with U-251, > 100 µM (inactive); with UACC-62, > 100 µM (inactive); in the test with OVCAR-4, > 100 µM (inactive); in the test on PC-3, 74.6 µM (inactive); with RXF 393 it was 58.7 µM (inactive).
For `O=C1CCCCC1=C(I)I`, the GI50 in the test on HOP-62 was 28.7 µM (inactive); in the test with 786-0 it was 16.5 µM (inactive); in the test with EKVX, 1.88 µM (inactive); with SF-268, 19.4 µM (inactive); with SNB-75, 18.5 µM (inactive); with SF-295, 24.8 µM (inactive). Moreover, the GI50 in the test with HL-60 is 4.49 µM (inactive); in the test on HCC 2998 it was 15.8 µM (inactive); in the test with T47D it was 15 µM (inactive); with OVCAR-5, 17.5 µM (inactive); in the test with SR, 16.1 µM (inactive); with SK-OV-3, 22.6 µM (inactive). Moreover, the GI50 in the test on SK-MEL-5 is 17.9 µM (inactive); in the test with U-251, 16.3 µM (inactive); in the test on UACC-62, 17.1 µM (inactive); in the test on OVCAR-4, 12.1 µM (inactive); in the test on PC-3 it was 16.5 µM (inactive); in the test on RXF 393, 16.2 µM (inactive).
As to `Cc1nnc2sc(Cc3cnc(N)s3)nn12`, the GI50 is > 100 µM (inactive) in the test with HOP-62; > 100 µM (inactive) in the test on 786-0; > 100 µM (inactive) in the test with EKVX; > 100 µM (inactive) in the test on SF-268; > 100 µM (inactive) in the test with SNB-75; more than 100 µM with HCT-15. The GI50 in the test on HL-60, in the test on HCC 2998, in the test with T47D, with OVCAR-5, in the test on SR and in the test on SK-OV-3 was > 100 µM (inactive) in each case. In addition, the GI50 in the test with SK-MEL-5, with U-251, with UACC-62, in the test with OVCAR-4, in the test with PC-3 and in the test with RXF 393 was > 100 µM (inactive) throughout.
For `S=C1CSc2c(cnc3ccccc23)N1`, the GI50 in the test with HOP-62 was > 100 µM (inactive); in the test with 786-0 it was > 100 µM (inactive); in the test on EKVX, 76.4 µM (inactive); in the test with SF-268, > 100 µM (inactive); with SNB-75, 56.8 µM (inactive); in the test on SF-295, 52.2 µM (inactive). Moreover, the GI50 in the test on HCT-15 is more than 100 µM; in the test on HL-60, > 100 µM (inactive); in the test with T47D, 80.5 µM (inactive); in the test with LOX IMVI, > 100 µM (inactive); in the test on OVCAR-5, > 100 µM (inactive); in the test on SR, > 100 µM (inactive). Further, the GI50 was > 100 µM (inactive) in the test on SK-OV-3; > 100 µM (inactive) in the test on SK-MEL-5; > 100 µM (inactive) in the test on U-251; > 100 µM (inactive) in the test with UACC-62; > 100 µM (inactive) with OVCAR-4; 68.4 µM (inactive) in the test on PC-3. Besides, the GI50 in the test with RXF 393 is 20 µM (inactive).
As for `N#Cc1ccc(/C=N/NC(=O)CSCC(=O)N/N=C/c2ccc(C#N)cc2)cc1`, the GI50 in the test on HOP-62 is > 100 µM (inactive); in the test on 786-0, > 100 µM (inactive); in the test on EKVX it was > 100 µM (inactive); in the test with SF-268, > 100 µM (inactive); in the test on SNB-75, 26.3 µM (inactive); in the test on SF-295, > 100 µM (inactive). Besides, the GI50 with HCT-15 is more than 100 µM; in the test with HL-60 it was > 100 µM (inactive); in the test with HCC 2998, > 100 µM (inactive); in the test with T47D, > 100 µM (inactive); in the test on OVCAR-5, > 100 µM (inactive); in the test with SR it was > 100 µM (inactive). The GI50 with SK-OV-3 is > 100 µM (inactive); in the test with SK-MEL-5 it was > 100 µM (inactive); in the test on U-251, 48.1 µM (inactive); in the test with UACC-62, > 100 µM (inactive); in the test on OVCAR-4, > 100 µM (inactive); with PC-3 it was > 100 µM (inactive). The GI50 in the test with RXF 393 was > 100 µM (inactive).
